# Values of other authors in US20140005116A1, “KELOID TREATMENT” (ADE THERAPEUTICS INC., priority 2010, published 2014).
# Peptide text beside a SMILES is read from it.
# Settings: heat sterilization and prolonged storage
row,Structure (SMILES),stability during sterilization and prolonged storage
1,NCC(=O)N[C@@H](CCC(N)=O)C(=O)O [Glycyl-glutamine] (H-Gly-Gln-OH),sufficiently stable
2,"C[C@H](N)C(=O)N[C@@H](CCC(N)=O)C(=O)O [alanyl-glutamine, L-alanyl-L-glutamine] (H-Ala-Gln-OH)",sufficiently stable
